Laboratory results: article PMC11242993, “Evaluation of the Therapeutic Potential of Sulfonyl Urea Derivatives as Soluble Epoxide Hydrolase (sEH) Inhibitors” (Molecules, 2024)

Legend:
human recombinant sEH = target: T1, human recombinant sEH (Homo sapiens, UniProt P34913); experiment: Fluorescence-based sEH activity assay (PHOME substrate), human enzyme; format: biochemical; conditions: for IC50: dose-dependent assay, read-out: Human sEH Inhibition IC50
T1 construct: purchased Cayman Chemical 10011671
T1 sequence (P34913 1-555): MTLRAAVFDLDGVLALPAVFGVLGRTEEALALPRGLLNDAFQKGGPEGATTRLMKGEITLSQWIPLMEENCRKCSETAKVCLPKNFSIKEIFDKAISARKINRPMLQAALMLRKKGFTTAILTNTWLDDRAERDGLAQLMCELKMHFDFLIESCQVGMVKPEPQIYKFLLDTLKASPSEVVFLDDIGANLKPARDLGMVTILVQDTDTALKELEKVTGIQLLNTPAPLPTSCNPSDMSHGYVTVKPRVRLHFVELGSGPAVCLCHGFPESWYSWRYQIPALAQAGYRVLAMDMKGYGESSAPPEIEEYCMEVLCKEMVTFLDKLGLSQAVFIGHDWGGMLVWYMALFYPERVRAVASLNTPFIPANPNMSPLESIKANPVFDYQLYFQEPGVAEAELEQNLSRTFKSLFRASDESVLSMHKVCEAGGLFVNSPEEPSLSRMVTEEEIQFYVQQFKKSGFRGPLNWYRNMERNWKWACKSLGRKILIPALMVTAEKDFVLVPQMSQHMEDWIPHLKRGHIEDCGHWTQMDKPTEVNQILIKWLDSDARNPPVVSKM
Description: A fluorescence-based sEH activity assay provided a convenient method for screening human epoxide hydrolase inhibitors. The assay utilized (3-Phenyl-oxiranyl)-acetic acid cyano-(6-methoxy-naphthalen-2-yl)-methyl ester (PHOME) as a substrate. […] The inhibitory function of the compounds on sEH activity was tested as detailed in the product manual from Cayman Chemical. Briefly, 3 mL sEH assay buffer (10×) was diluted with 27 mL HPLC-grade water. This final assay buffer, 25 mM bis-tris (pH 7.0), was used in the assay and for the dilution of the soluble epoxide hydrolase (sEH) enzyme. Amounts of 12 μL each of human and mouse recombinant sEH were thawed on ice. Prior to assaying, 588 μL cold assay buffer was added directly to the enzyme vial. An amount of 190 μL assay buffer and 5 μL solvent (40% DMSO in assay buffer) were added to the background wells. In the 100% initial activity wells, 185 μL assay buffer, 5 μL sEH, and 5 μL solvent were added. In inhibitor wells, 185 μL assay buffer, 5 μL solution of the synthesized compounds, and 5 μL of recombinant enzyme solution were added.
(§1) Average fluorescence (AF) of the background wells and 100% initial activity in the wells and of each of the inhibitors were determined. The background AF was subtracted from the 100% initial activity and inhibitor AFs. The % sEH activity is calculated as (inhbitited AF/% 100 initial activity) × 100.
(§2) Multiple concentrations of the inhibitors were tested followed by plotting of the percent activity as a function of inhibitor concentration to determine the IC50 values.

mouse recombinant sEH = target: T2, mouse recombinant sEH (Mus musculus, UniProt P34914); experiment: Fluorescence-based sEH activity assay (PHOME substrate), mouse enzyme; format: biochemical; conditions: dose-dependent assay; read-out: Mouse sEH Inhibition IC50
T2 sequence (P34914 1-554): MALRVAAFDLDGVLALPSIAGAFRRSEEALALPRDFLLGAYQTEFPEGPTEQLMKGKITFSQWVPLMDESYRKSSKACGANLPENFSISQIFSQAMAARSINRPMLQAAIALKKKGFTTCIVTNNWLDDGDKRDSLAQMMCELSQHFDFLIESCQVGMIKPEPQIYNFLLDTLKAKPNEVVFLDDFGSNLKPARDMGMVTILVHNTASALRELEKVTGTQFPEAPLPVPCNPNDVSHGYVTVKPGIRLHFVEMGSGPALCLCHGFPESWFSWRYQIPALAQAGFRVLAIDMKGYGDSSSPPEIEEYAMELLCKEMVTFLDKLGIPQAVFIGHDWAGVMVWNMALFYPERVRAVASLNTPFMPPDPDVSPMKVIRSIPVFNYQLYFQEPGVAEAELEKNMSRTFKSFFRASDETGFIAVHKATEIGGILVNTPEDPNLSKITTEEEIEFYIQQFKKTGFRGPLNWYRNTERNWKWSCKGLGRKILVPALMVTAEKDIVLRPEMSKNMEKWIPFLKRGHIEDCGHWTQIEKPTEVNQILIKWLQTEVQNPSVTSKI
Description: A fluorescence-based sEH activity assay provided a convenient method for screening human epoxide hydrolase inhibitors. The assay utilized (3-Phenyl-oxiranyl)-acetic acid cyano-(6-methoxy-naphthalen-2-yl)-methyl ester (PHOME) as a substrate. […] The inhibitory function of the compounds on sEH activity was tested as detailed in the product manual from Cayman Chemical. Briefly, 3 mL sEH assay buffer (10×) was diluted with 27 mL HPLC-grade water. This final assay buffer, 25 mM bis-tris (pH 7.0), was used in the assay and for the dilution of the soluble epoxide hydrolase (sEH) enzyme. Amounts of 12 μL each of human and mouse recombinant sEH were thawed on ice. Prior to assaying, 588 μL cold assay buffer was added directly to the enzyme vial. An amount of 190 μL assay buffer and 5 μL solvent (40% DMSO in assay buffer) were added to the background wells. In the 100% initial activity wells, 185 μL assay buffer, 5 μL sEH, and 5 μL solvent were added. In inhibitor wells, 185 μL assay buffer, 5 μL solution of the synthesized compounds, and 5 μL of recombinant enzyme solution were added. To start the reaction, 5 μL of PHOME was added to each well at a final concentration of 0.25 mM. The microwell plate was shaken carefully for 10 s and covered with a plate cover.
as §1, §2

SMILES | Human sEH % Inhibition (human recombinant sEH) | IC50 (human recombinant sEH) | IC50 (mouse recombinant sEH) | human sEH inhibitory activity (in words) (human recombinant sEH)
O=C(NC12CC3CC(CC(C3)C1)C2)NS(=O)(=O)c1ccccc1 [Compound 4a] | 93.61% | 100 nM | > 1000 nM | –
Cc1ccc(S(=O)(=O)NC(=O)NC23CC4CC(CC(C4)C2)C3)cc1 [Compound 4b, N-((adamantan-1-yl)carbamoyl)-4-methylbenzenesulfonamide] | 91.78% | 16.3 nM | 850 nM | –
COc1ccc(S(=O)(=O)NC(=O)NC23CC4CC(CC(C4)C2)C3)cc1 [Compound 4e] | 95.39% | 2.94 nM | > 1000 nM | –
O=C(NC12CC3CC(CC(C3)C1)C2)NS(=O)(=O)c1ccc(F)cc1 [Compound 4j] | 85.26% | 120 nM | > 1000 nM | –
O=C(NC12CC3CC(CC(C3)C1)C2)NS(=O)(=O)c1ccc(Cl)cc1 [Compound 4k] | 96.47% | 2 nM | > 1000 nM | –
O=S(=O)(NC(=S)NC12CC3CC(CC(C3)C1)C2)c1ccccc1 [Compound 6a, N-((adamantan-1-yl)carbamothioyl)benzenesulfonamide] | 84.56% | 130 nM | > 1000 nM | –
O=S(=O)(NC(=S)NC12CC3CC(CC(C3)C1)C2)c1ccc(OC(F)(F)F)cc1 [Compound 6d, N-((adamantan-1-yl)carbamothioyl)-4-(trifluoromethoxy)benzenesulfonamide] | 96.24% | 4.66 nM | 110 nM | –
O=C(NC12CC(F)(C1)C2)NS(=O)(=O)c1ccc(OC(F)(F)F)cc1 [Compound 11c, N-((3-fluorobicyclo [1.1.1]pentan-1-yl)carbamoyl)-4-(trifluoromethoxy)benzenesulfonamide] | 1.67% | – | – | –
O=C(NC1C2CC3CC(C2)CC1C3)NS(=O)(=O)c1ccc(OC(F)(F)F)cc1 (centres unmarked) [Compound 12, N-((adamantan-2-yl)carbamoyl)-4-(trifluoromethoxy)benzenesulfonamide] | 34.53% | – | – | none of them showed any activity
O=C(NS(=O)(=O)c1ccc(OC(F)(F)F)cc1)N1CCC(C(F)(F)F)CC1 [Compound 13, N-((4-(trifluoromethoxy)phenyl)sulfonyl)-4-(trifluoromethyl)piperidine-1-carboxamide] | 2.75% | – | – | none of them showed any activity
O=C(NC1CCCCC1)NS(=O)(=O)c1ccc(OC(F)(F)F)cc1 [Compound 14, N-(cyclohexylcarbamoyl)-4-(trifluoromethoxy)benzenesulfonamide] | 32.26% | – | – | none of them showed any activity
CC12CC3CC(C)(C1)CC(NC(=O)NS(=O)(=O)c1ccc4ccccc4c1)(C3)C2 [Compound 15b, N-((3,5-dimethyladamantan-1-yl)carbamoyl)naphthalene-2-sulfonamide] | 47.05% | 950 nM | > 1000 nM | –
CC(C)(C)OC(=O)N1CCC(NC(=O)NS(=O)(=O)c2ccc(OC(F)(F)F)cc2)CC1 [Compound 16, tert-butyl 4-(3-((4-(trifluoromethoxy)phenyl)sulfonyl)ureido)piperidine-1-carboxylate] | 23.03% | – | – | none of them showed any activity
O=C(NC1CCNCC1)NS(=O)(=O)c1ccc(OC(F)(F)F)cc1 [Compound 17, N-(piperidin-4-ylcarbamoyl)-4-(trifluoromethoxy)benzenesulfonamide] | 32.02% | – | – | none of them showed any activity
O=C(NC1CCN(C(=O)NC23CC4CC(CC(C4)C2)C3)CC1)NS(=O)(=O)c1ccc(OC(F)(F)F)cc1 [Compound 18, N-(1-((adamantan-1-yl)carbamoyl)piperidin-4-yl)-N′-((4-(trifluoromethoxy)phenyl)sulfonyl)carbamimidic acid] | 60.80% | 38.7 nM | 710 nM | –
